From US11076595B2, “1-(n,n-disubstituted carbamoyl) 4-(substituted sulfonyl)triazolin-5-one derivative, 4-(n,n-disubstituted carbamoyl) 1-(substituted sulfonyl)triazolin-5-one derivative, and herbicide containing said derivative as active ingredient” (HOKKO CHEMICAL INDUSTRY CO., LTD., priority 2017, dated 2021)

Tests used:
Format in all cases: in vivo
[1] = system: Echinochloa crus-galli; assay: Test Example 13: herbicidal effect test by soil treatment in upland field; details: 120 g/10a, 14 days after treatment
Procedure: (§1) A pot having a size of 36 cm^2 was filled with field soil (alluvial soil) and after mixing the soil of the surface layer of 1 cm with 20 grains of each weed seed of crabgrass, Echinochloa crus-galli, Chenopodium album and Amaranthus viridis, the surface layer was pressed lightly. One day after the sowing, an emulsifiable concentrate prepared according to Formulation Example 15 by using the compound shown in Table 11 below was diluted with water, and the water-diluted formulation was sprayed on the soil surface at a ratio of 100 liter per 10 are. The application rate of the active ingredient, by conversion, corresponded to 120 g per 10 are. Fourteen Days after the formulation treatment, the herbicidal effect was evaluated by the same criteria as in Test Example 11.

[2] = system: Chenopodium album; assay: as above; details: 120 g/10a, 14 days after treatment
Procedure: as §1

[3] = system: crabgrass; assay: as above; details: 120 g/10a, 14 days after treatment
Procedure: as §1

[4] = system: Amaranthus viridis; assay: as above; details: 120 g/10a, 14 days after treatment
Procedure: as §1

[5] = system: Lindernia pyxidaria; assay: Test Example 11: herbicidal effect test by soil treatment in paddy field; details: 120 g/10a active ingredient, 14 days after treatment
Outline: (§2)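 Pre-emergence paddy test, 120 g a.i./10 are, emulsifiable concentrate diluted in water and added dropwise to ~3 cm flood water right after sowing (30 seeds/species, 0–1 cm depth, fertilized puddled soil). Greenhouse; 2 replicates; dry-weight suppression (%) vs untreated, day 14.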

[6] = system: Echinochloa crus-galli; assay: as above; details: 120 g/10a active ingredient, 14 days after treatment
Outline: as §2

[7] = system: Monochoria vaginalis; assay: as above; details: 120 g/10a active ingredient, 14 days after treatment
Outline: as §2

[8] = system: Scirpus juncoides; assay: as above; details: 120 g/10a active ingredient, 14 days after treatment
Outline: as §2

[9] = system: Lindernia pyxidaria; assay: Test Example 12: herbicidal effect test by treatment during growing period in paddy field; details: 120 g/10a; treatment seven days after sowing in flooded paddy pot; assessed 14 days after treatment
Outline: (§3)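 Weed suppression (%) = (1 − treated/untreated mean dry weight) × 100, scored 14 days after treatment with two replicates per plot. Dose 120 g a.i. per 10 are, as diluted emulsifiable concentrate added dropwise to flooded pots (water about 3 cm) 7 days post-sowing, seeds at 0-1 cm.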

[10] = system: Echinochloa crus-galli; assay: as above; details: 120 g/10a; treatment seven days after sowing in flooded paddy pot; assessed 14 days after treatment
Outline: as §3

[11] = system: Monochoria vaginalis; assay: as above; details: 120 g/10a; treatment seven days after sowing in flooded paddy pot; assessed 14 days after treatment
Outline: as §3

[12] = system: Scirpus juncoides; assay: as above; details: 120 g/10a; treatment seven days after sowing in flooded paddy pot; assessed 14 days after treatment
Outline: as §3

| Structure (SMILES) | herbicidal effect, Echinochloa crus-galli [1] [%] | herbicidal effect, Chenopodium album [2] [%] | herbicidal effect, Crabgrass [3] [%] | herbicidal effect, Amaranthus viridis [4] [%] | Weed suppression rate (%) Lindemia pyxidaria [5] [%] | Weed suppression rate (%) Echinochloa crus-galli [6] [%] | Weed suppression rate (%) Monochoria vaginalis [7] [%] | Weed suppression rate (%) Scirpus juncoides [8] [%] | Weed suppression rate (%) Lindemia pyxidaria [9] [%] | Weed suppression rate (%) Echinochloa crus-galli [10] [%] | Weed suppression rate (%) Monochoria vaginalis [11] [%] | Weed suppression rate (%) Scirpus juncoides [12] [%] |
| --- | --- | --- | --- | --- | --- | --- | --- | --- | --- | --- | --- | --- |
| CC(C)N(C(=O)n1cnn(S(=O)(=O)C2CCCCC2)c1=O)c1ccccc1F [Compound 11-284] | 80 | 80 | 90 | 90 | 100 | 100 | 100 | 100 | 100 | 100 | 100 | 90 |
| Cc1ccc(N(C(=O)n2cnn(S(=O)(=O)C3CCCCC3)c2=O)C(C)C)c(F)c1 [Compound 11-308] | 80 | 80 | 90 | 90 | 90 | 90 | 90 | 90 | 80 | 90 | 80 | 90 |
| Cc1cc(Cl)ccc1N(C(=O)n1cnn(S(=O)(=O)C2CCCCC2)c1=O)C(C)C [Compound 11-309] | 80 | 80 | 90 | 90 | 80 | 90 | 80 | 90 | 80 | 90 | 80 | 90 |
| CCN(CC)C(=O)n1cnn(S(=O)(=O)c2ccccc2)c1=O [Compound 11-352] | 80 | 40 | 80 | 0 | 60 | 100 | 50 | 60 | 70 | 100 | 60 | 60 |
| CC(C)N(C(=O)n1cnn(S(=O)(=O)c2ccccc2)c1=O)c1ccc(F)cc1 [Compound 11-358] | 80 | 80 | 90 | 90 | 80 | 90 | 80 | 90 | 80 | 90 | 80 | 90 |
| CC(C)N(C(=O)n1cnn(S(=O)(=O)c2ccccc2F)c1=O)c1c(F)cc(F)cc1F [Compound 11-406] | 100 | 30 | 90 | 30 | 100 | 100 | 80 | 80 | 70 | 100 | 80 | 80 |
| CC(C)N(C(=O)n1cnn(S(=O)(=O)c2ccc(F)cc2)c1=O)c1c(F)cccc1F [Compound 11-477] | 100 | 70 | 100 | 70 | 90 | 100 | 70 | 100 | 60 | 100 | 70 | 70 |
| Cc1cc(F)ccc1N(C(=O)n1cnn(S(=O)(=O)c2ccc(F)cc2)c1=O)C(C)C [Compound 11-488] | 60 | 60 | 70 | 60 | 100 | 100 | 80 | 100 | 100 | 100 | 100 | 80 |
| CCN(CC)C(=O)n1cnn(S(=O)(=O)c2cccc(Cl)c2)c1=O [Compound 11-538] | 80 | 40 | 60 | 40 | 40 | 50 | 40 | 40 | 70 | 70 | 70 | 70 |
| CC(C)N(C(=O)n1cnn(S(=O)(=O)c2cccc(Cl)c2)c1=O)c1ccc(F)cc1F [Compound 11-550] | 90 | 0 | 90 | 0 | 90 | 90 | 80 | 80 | 90 | 70 | 90 | 80 |
| CC(C)N(C(=O)n1cnn(S(=O)(=O)c2ccc(Cl)cc2)c1=O)c1ccc(F)cc1F [Compound 11-588] | 80 | 80 | 60 | 40 | 90 | 90 | 90 | 90 | 90 | 80 | 90 | 70 |
| CC(C)N(C(=O)n1cnn(S(=O)(=O)c2ccc(Br)cc2)c1=O)c1ccc(F)cc1F [Compound 11-616] | 80 | 80 | 40 | 80 | 90 | 90 | 90 | 90 | 80 | 50 | 80 | 60 |
| CCN(CC)C(=O)n1cnn(S(=O)(=O)c2ccccc2C)c1=O [Compound 11-622] | 90 | 40 | 80 | 40 | 40 | 90 | 0 | 40 | 50 | 90 | 50 | 50 |
| CCc1ccc(S(=O)(=O)n2ncn(C(=O)N(CC)CC)c2=O)cc1 [Compound 11-665] | 80 | 0 | 80 | 0 | 40 | 80 | 40 | 40 | 60 | 90 | 60 | 60 |
